Read-outs that look alike come from different tables or passages of the source. Marks after values point to notes of the source that are not given here.
Experiments:
[1] = test system: Salmonella typhimurium TA100; format: cell-based; conditions: for Inhib. (%) of mutagenicity: against NQNO 40 ng/mL; for Number of revertants, Mean ± SD (antimutagenicity): test compound plus NQNO 40 ng/mL, NQNO line = mutagen alone
Excerpt: (§1) Triplicate plates were set up with each test compound concentration and the entire experiment was repeated twice.

Vibrio harveyi BB7M [2] = format: cell-based; conditions: for Inhib. (%) of mutagenicity: against NQNO 40 ng/mL; for Number of revertants, Mean ± SD (antimutagenicity): test compound plus NQNO 40 ng/mL, NQNO line = mutagen alone
Method: (§2) In the experiment, overnight cultures of bacterial strains BB7, BB7M, BB7X, and BB7XM were used. Each culture was centrifuged and 10 µL of V. harveyi pellets was placed in 20 mL of BOSS medium. The culture was cultivated at 30 °C until the optical density reached 0.1 at 600 nm (OD600). Then, 10 µL of test compound solution (final concentration of 40 ng/mL) was added to the bacterial culture and incubated. Incubation was continued until OD600 reached 0.3–0.4. Next, 5 × 10^6 bacterial cells were spread onto BOSS agar plates with neomycin. The plates were incubated at 30 °C for 48 h and the number of neomycin-resistant colonies was counted. […] All the experiments were analyzed in three independent repetitions. Finally, MI was calculated.
as §1
(§3) The inhibition percentage of mutagenicity was calculated as described above in the Ames antimutagenicity assay procedure.

Vibrio harveyi BB7XM [3] = format: cell-based; conditions: for Inhib. (%) of mutagenicity: against NQNO 40 ng/mL; for Number of revertants, Mean ± SD (antimutagenicity): test compound plus NQNO 40 ng/mL, NQNO line = mutagen alone
Method: as §2, §1, §3

Vibrio harveyi BB7X [4] = format: cell-based; conditions: for Inhib. (%) of mutagenicity: against NQNO 40 ng/mL; for Number of revertants, Mean ± SD (antimutagenicity): test compound plus NQNO 40 ng/mL, NQNO line = mutagen alone
Method: as §2, §1, §3

Vibrio harveyi BB7 [5] = format: cell-based; conditions: for Inhib. (%) of mutagenicity: against NQNO 40 ng/mL; for Number of revertants, Mean ± SD (antimutagenicity): test compound plus NQNO 40 ng/mL, NQNO line = mutagen alone
Method: as §2, §1, §3

Vibrio harveyi BB7M [6] = format: cell-based; conditions: 40 ng/mL; for MI (mutagenic index): positive when MI ≥ 2
Method: as §2

Vibrio harveyi BB7X [7] = format: cell-based; conditions: 40 ng/mL; for MI (mutagenic index): positive when MI ≥ 2
Method: as §2

Vibrio harveyi BB7 [8] = format: cell-based; conditions: BB7, 40 ng/mL; for MI (mutagenic index): positive when MI ≥ 2
Method: as §2

mice [9] = test system: mice; set-up: method as in PMID 25446027; conditions: i.p., dose protecting 50% of animals against seizures, in mg/kg; cited from earlier work
[10] = target: recombinant human P-gp membranes (Homo sapiens, UniProt P08183); assay: P-gp ATPase activity assay (P-gp-Glo); conditions: compounds 10–100 µM, verapamil 100 µM; 5 mM Mg ATP, 37 °C, 45 min
Method: The changes in the ATPase activity of P-gp were determined by using the P-gp-Glo TM assay system (Promega). […] When P-gp ATPase activity is inhibited, ATP accumulates and becomes a substrate for luciferase, with a consequent increase in luminescence. The tested compounds at increasing concentration (10–100 µM) were incubated with 5 mM Mg ATP and 25 µg recombinant human P-gp membranes at 37 °C for 45 min. The luminescence signal was started by adding ATP detection buffer. After incubation at room temperature for 25 min, the samples were read in white 96-well plates on a multi-plate reader (BIOTEK).

mice [11] = test system: mice; set-up: method as in PMID 25446027; conditions: i.p., printed in the ED50(MES) column; cited from earlier work
mice [12] = conditions: cited from earlier work
[13] = test system: Salmonella typhimurium TA100; format: cell-based; conditions: TA100, 40 ng/mL; for MI (mutagenic index): positive when MI ≥ 2
Method: The Ames assay was conducted by the preincubation method using S. typhimurium TA100 strain [60]. Each probe was performed in triplicate; 100 µL of the overnight bacterial culture, 50 µL of the investigated compounds at a concentration of 40 ng/mL, and 500 µL of a buffer solution were preincubated for 30 min at 37 °C and then added to 2 mL of the top agar containing histidine/biotin solution. The resulting mixture was poured onto minimal glucose plates. After 48 h incubation, the revertants were counted manually and the results were expressed as mutagenic index (MI) (MI = the number of revertant colonies induced in the tested sample/the number of spontaneous revertants in the negative control). […] DMSO served as the negative (solvent) control.

Vibrio harveyi BB7XM [14] = assay: Vibrio harveyi mutagenicity test, BB7XM; format: cell-based; conditions: 40 ng/mL; for MI (mutagenic index): positive when MI ≥ 2
Method: as §2

rats [15] = test system: rats; set-up: method as in PMID 25446027; conditions: p.o., in mg/kg; cited from earlier work
rats [16] = test system: rats; set-up: unit not given beside the values; conditions: cited from earlier work
[17] = test system: human glioblastoma astrocytoma cell line U373; assay: MTT viability test on human glioblastoma cells; format: cell-based; conditions: U373, 10, 25, 50 or 100 µM, 24 h; listed as racemic compound
Method: Astrocyte cell line (ATCC, CRL-2541), human glioblastoma astrocytoma cell line U373 (ATCC, HTB17-1055), and human hepatoma HepG2 cells (ATCC, HB-8065) were used in the study. The cells were cultured in standard conditions (37 °C, 5% CO2), in EMEM medium with 2 mM glutamine and 1% non-essential amino acids, all supplemented with 10% FBS and antibiotics (penicillin–streptomycin; 10,000 U/mL; final concentration in culture medium was 1%).
The cells were seeded at a density of 1 × 10^4 in 96-well plates. Following overnight culture, the cells were treated with increasing doses of compounds 1–3 (i.e., 10, 25, 50, or 100 μM) and incubated for 24 h. Next, 10 µL of MTT (3-(4,5-dimethylthiazolyl-2)-2,5-diphenyltetrazolium bromide) reagent (Cayman) was added to each well and after 3 h of incubation (37 °C, 5% CO2) the medium was aspirated, and the formazan produced in the cells appeared as dark crystals at the bottom of the wells. Subsequently, crystal dissolving solution (Cayman) was added to each well and the optical density (OD) was determined at 570 nm on a plate reader (BIOTEK). Doxorubicin (DOX) was used as a positive control. When hepatotoxicity of test compounds was evaluated, the morphology of the cells was also determined using a bright-field inverted microscope (Nikon).

[18] = mice, i.p., dose producing toxicity in 50% of animals
[19] = mice, i.p., value printed in the scMet line

Sequence of recombinant human P-gp membranes (P08183 whole entry): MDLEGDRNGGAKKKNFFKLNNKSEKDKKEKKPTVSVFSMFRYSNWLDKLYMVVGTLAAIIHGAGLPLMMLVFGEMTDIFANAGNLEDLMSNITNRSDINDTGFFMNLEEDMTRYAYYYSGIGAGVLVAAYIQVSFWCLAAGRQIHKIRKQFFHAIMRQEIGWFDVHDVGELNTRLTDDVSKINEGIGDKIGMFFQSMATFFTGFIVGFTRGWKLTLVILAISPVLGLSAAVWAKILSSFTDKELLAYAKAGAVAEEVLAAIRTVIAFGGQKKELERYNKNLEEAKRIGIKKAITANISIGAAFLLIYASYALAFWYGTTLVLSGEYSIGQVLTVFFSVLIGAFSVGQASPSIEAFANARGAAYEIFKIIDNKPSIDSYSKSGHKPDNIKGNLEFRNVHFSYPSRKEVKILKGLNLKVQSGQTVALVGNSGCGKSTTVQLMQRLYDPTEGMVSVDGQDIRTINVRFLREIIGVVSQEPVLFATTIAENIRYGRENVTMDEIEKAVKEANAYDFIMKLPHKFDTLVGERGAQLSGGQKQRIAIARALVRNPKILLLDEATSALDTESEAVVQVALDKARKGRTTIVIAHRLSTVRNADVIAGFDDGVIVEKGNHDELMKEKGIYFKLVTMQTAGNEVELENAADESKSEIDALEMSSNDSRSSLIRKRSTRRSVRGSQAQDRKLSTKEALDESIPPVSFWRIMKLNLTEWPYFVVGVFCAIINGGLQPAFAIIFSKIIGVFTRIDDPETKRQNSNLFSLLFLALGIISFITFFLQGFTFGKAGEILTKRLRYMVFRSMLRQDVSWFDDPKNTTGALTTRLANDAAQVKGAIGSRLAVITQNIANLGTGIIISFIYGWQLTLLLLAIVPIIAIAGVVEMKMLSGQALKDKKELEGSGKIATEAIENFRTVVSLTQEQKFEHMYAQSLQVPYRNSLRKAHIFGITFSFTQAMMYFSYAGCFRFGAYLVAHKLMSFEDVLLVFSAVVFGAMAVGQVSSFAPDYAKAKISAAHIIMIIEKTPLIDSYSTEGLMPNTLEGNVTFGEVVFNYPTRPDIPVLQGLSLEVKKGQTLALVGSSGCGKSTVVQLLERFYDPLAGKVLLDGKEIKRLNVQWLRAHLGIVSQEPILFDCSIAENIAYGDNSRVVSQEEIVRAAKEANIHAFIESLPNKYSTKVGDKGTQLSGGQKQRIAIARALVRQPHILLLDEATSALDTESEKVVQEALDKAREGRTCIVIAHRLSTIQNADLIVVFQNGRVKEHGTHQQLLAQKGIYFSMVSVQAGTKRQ

Compound	Inhib. (%) of mutagenicity [1]	Number of revertants, Mean ± SD (antimutagenicity) [1]	Inhib. (%) of mutagenicity (Vibrio harveyi BB7M [2])	Number of revertants, Mean ± SD (antimutagenicity) (Vibrio harveyi BB7M [2])	Inhib. (%) of mutagenicity (Vibrio harveyi BB7XM [3])	Number of revertants, Mean ± SD (antimutagenicity) (Vibrio harveyi BB7XM [3])	Inhib. (%) of mutagenicity (Vibrio harveyi BB7X [4])	Number of revertants, Mean ± SD (antimutagenicity) (Vibrio harveyi BB7X [4])	Inhib. (%) of mutagenicity (Vibrio harveyi BB7 [5])	Number of revertants, Mean ± SD (antimutagenicity) (Vibrio harveyi BB7 [5])	Number of revertants, Mean ± SD (Vibrio harveyi BB7M [6])	MI (mutagenic index) (Vibrio harveyi BB7M [6])	Number of revertants, Mean ± SD (Vibrio harveyi BB7X [7])	MI (mutagenic index) (Vibrio harveyi BB7X [7])	Number of revertants, Mean ± SD (Vibrio harveyi BB7 [8])	MI (mutagenic index) (Vibrio harveyi BB7 [8])	ED50(MES) (mice [9])	Number of revertants, Mean ± SD [13]	MI (mutagenic index) [13]	ED50(MES) (rats [15])	further results
Cc1cc(OCCN[C@@H]2CCCC[C@H]2O)ccc1Cl [Compound 1]	(27) %	16 ± 2	(37) %	22 ± 2	(35) %	16 ± 2	(31) %	20 ± 4	(32) %	26 ± 3	22 ± 3	1.0	16 ± 5	0.9	21 ± 3	1.1	38.34 ^#	9 ± 4	0.6	–	effect on P-gp ATPase activity (luminescence) [10]: more potent; ED50 (scMet) (mice [11]): >90.00 ^#scMet; TD50 (mice [12]; [18]): 66.03 ^#; TD50 (mice [12]; [19]): 66.03 ^#scMet; Number of revertants, Mean ± SD (Vibrio harveyi BB7XM [14]): 18 ± 2; MI (mutagenic index) (Vibrio harveyi BB7XM [14]): 1.6
CCCC(CCC)C(=O)O [VPA, valproate]	–	–	–	–	–	–	–	–	–	–	–	–	–	–	–	–	287 ^#	–	–	395 ^^	TD50 (rats [16]; rat, in vivo, po): 859 ^^
Cc1cc(OCCNC2CCCCC2O)ccc1Cl (stereo not drawn) [Compound 3]	(41) %	13 ± 3	(36) %	22 ± 5	(57) %	10 ± 4	(29) %	21 ± 4	(51) %	19 ± 3	27 ± 4	1.7	13 ± 4	1.0	23 ± 3	1.4	25.05 ^#	6 ± 3	0.4	99.25 ^^	ED50 (scMet) (mice [11]): >150 ^#scMet; TD50 (mice [12]; [18]): 71.04 ^#; TD50 (mice [12]; [19]): 71.04 ^#scMet; TD50 (rats [16]; rats, p.o.): >250 ^^; cytotoxicity against human glioblastoma cells (MTT viability) [17]: less cytotoxic than the two enantiomers; Number of revertants, Mean ± SD (Vibrio harveyi BB7XM [14]): 15 ± 4; MI (mutagenic index) (Vibrio harveyi BB7XM [14]): 1.4
O=C1NC(=O)C(c2ccccc2)(c2ccccc2)N1 [PHT, phenytoin]	–	–	–	–	–	–	–	–	–	–	–	–	–	–	–	–	6.48 ^#	–	–	32.2 ^^	TD50 (rats [16]; rats, p.o.): >500 ^^
Cc1cc(OCCN[C@H]2CCCC[C@@H]2O)ccc1Cl [Compound 2]	(38) %	14 ± 3	(41) %	20 ± 4	(40) %	14 ± 4	(30) %	21 ± 3	(38) %	23 ± 4	23 ± 3	1.1	10 ± 6	0.6	23 ± 5	1.2	–	3 ± 1	0.2	–	Number of revertants, Mean ± SD (Vibrio harveyi BB7XM [14]): 10 ± 3; MI (mutagenic index) (Vibrio harveyi BB7XM [14]): 0.9
NC(=O)N1c2ccccc2C=Cc2ccccc21 [CBZ, carbamazepine]	–	–	–	–	–	–	–	–	–	–	–	–	–	–	–	–	9.85 ^#	–	–	3.57 ^^	TD50 (mice [12]; mouse, in vivo, ip): 47.8 ^#
